Measurements taken from patent publication US8158606B2, “β-L-2′-deoxynucleosides for the treatment of resistant HBV strains and combination therapies” (priority 2002, dated 2012).
Converted amounts (≈) assume the structure as drawn. “And” between values parts separate entries of the source, which are not always exact repeats. Equal values may be shown once. Where a name gives a salt, the structure may show the parent alone. Read-outs that look alike come from different tables or passages of the source.

Columns and labels:
[1] = Log P study, octanol-1 / phosphate buffer; details: for log P (octanol/water): octanol-1 / 0.02 M phosphate buffer pH 7.2; for P (B/A): octanol-1 (B) / 0.02 M phosphate buffer pH 7.2 (A), Study 1 and Study 2
Description: To 1 mL of this solution, 1 mL of octanol-1 (B) saturated with 0.02 M phosphate buffer solution (A) was added. The resultant mixture was shaken and centrifuged; three samples from each phase was collected and analyzed by HPLC, as shown in Table 10.
The solution was then saturated with octanol-1 (B). To 1 mL of this solution, 1 mL of octanol-1 (B) saturated with 0.02 M phosphate buffer solution (A) was added. The resultant mixture was shaken and centrifuged; three samples from each phase was collected and analyzed by HPLC, as shown in Table 11.

[2] = Solubility study in water (HPLC calibration)
[3] = format: physicochemical; details: octanol-1 (B) / MilliQ water pH 6.5 (A′), Study 1 and Study 2, listed as L-dC-5′-valinyl ester hydrochloride
Description: (§1) To 1 mL of this solution, 1 mL of octanol-1 (B) saturated with MilliQ water (A′) was added.
as §1

[4] = Stability study in buffer at pH 7.4, 7.20, 4.5 and 1.2; format: physicochemical; details: pH 1.2, no decomposition products detected for up to 23 hours
[5] = test system: cytosolic extracts of HepG2 cells; assay: Steady state phosphorylation kinetics in cytosolic extracts; format: biochemical, human; details: cytosolic extracts of HepG2 cells as enzyme source
[6] = molecular target: hepatitis B virus deoxyribonucleic acid (DNA) polymerase (Hepatitis B virus genotype D subtype ayw, UniProt P03156); assay: biochemical
[7] = test system: L515M/M552I mutant HBV, cell line MI4; assay: Antiviral testing in stable HepG2 cell lines, EPA of intracellular nucleocapsids; format: cell-based, hepatitis B virus
Description: (§2) Recombinant DNA constructs corresponding to these lamivudine-resistant mutants were created by site directed mutagenesis. The test system comprised stable cell lines harboring each of the transfected mutant genomes, as well as a wild-type control HBV genome. The antiviral activity of LdT (telbivudine) and LdC, together with the control drugs lamivudine and PMEA, was determined against the mutant and wild-type HBV genomes in the respective test cell lines.
(§3) Endogenous Polymerase Assay (EPA) of cell lysate: Cells were grown in 12-well collagen plates to 100% confluency for 3-4 days and cytosolic lysates were prepared in 1 ml of 50 mM Tris-HCl pH 7.4, 150 mM NaCl, 5 mM MgCl2, 0.2% NP-40. EPAs were essentially performed as described (Seifer et al., 1998). […] The immobilized capsids were then washed, endogenous polymerase reactions were initiated in 50 ul reaction volume containing 50 mM Tris-HCl pH7.4, 75 mM NH4Cl, 1 mM EDTA, 20 mM MgCl2, 0.1 mM β-ME, 0.5% NP-40, 100 μM cold dGTP, TTP, dCTP, and 50 nM ^33P-dATP (Perkin Elmer Life Sciences Cat# NEG 612H), and incubated overnight at 37° C. Following digestion with 1 mg/ml of Proteinase K (Roche, Cat#1373196) for 1 h at 37° C., ^33P-labeled HBV DNA was liberated via phenol/chloroform extraction The nucleic acids were finally precipitated with equal volumes 5M NH4-acetate and 2.5 volumes 100% EtOH and separated on a 1% native agarose gel in Tris-borate buffer. Gels were either fixed with 7% TCA, then dried, or blotted onto positively charged nylon membrane (Pall Biodyne Plus Cat#60406) overnight at room temperature via capillary transfer in 0.4 N NaOH. Dried gels/membranes were exposed to a phosphoimager screen (Molecular Dynamics) overnight at room temperature, then scanned (Storm 860, Molecular Dynamics) and quantitated with ImageQuant (Molecular Dynamics) software.
(§4) 12-well Biocoat collagen I plates (Becton Dickinson Cat#35-4500) are seeded with cells at a density of 0.5-1×10^6 cells per well in 2 ml DMEM containing 5% FBS, 2 mM L-glutamine, 100 I.U. penicillin/100 μg/mL streptomycin, and 0.5 mg/mL G-418.
(§5) Drug dilutions are prepared freshly in 100% DMSO as 200× stocks. For each experiment, 4 aliquots of each drug dilution series are stored at −20° C. until used. Once cells reach confluency, drug treatment is initiated by adding 10 μL of drug dilution into 2 ml of fresh DMEM+5% FBS. […] The no-drug control well receives only 10 μl of DMSO. Cells are treated every other day with 2 mL of fresh drug/medium for a total of 8 days. Cell lysates are then collected on day 10 as described below:
(§6) Aspirate media and rinse cell monolayer carefully once with 1 mL of PBS.
(§7) Add 1 ml of lysis buffer (50 mM Tris-HCl pH 7.5/150 mM NaCl/5 mM MgCl2/0.2% NP-40). Store on ice for 30 min to 4 h.
(§8) Harvest lysed cells. Transfer to 1.5 ml microfuge tubes.
(§9) Clarify lysate by spinning for 5 min at RT and 14,000 rpm.
(§10) Transfer clarified lysate to fresh tubes. Snap-freeze on dry-ice and store at −80° C. until ready to continue with endogenous polymerase assays essentially as described above.
(§11) EC50's were generated from the phosphorimager data by curve fitting using Xlfit software.

[8] = test system: L515M/M552V mutant HBV, cell line MV5/B3; assay: as above; format: cell-based, hepatitis B virus
Description: as §2, §3, §4, §5, §6, §7, §8, §9, §10, §11

[9] = test system: M552I mutant HBV, cell line I2; assay: as above; format: cell-based, hepatitis B virus
Description: as §2, §3, §4, §5, §6, §7, §8, §9, §10, §11

[10] = test system: M552V mutant HBV, cell line V1/C9; assay: as above; format: cell-based, hepatitis B virus; details: for EC50: cell line V1/C9, mean ± SD of three to four experiments
Description: as §2, §3, §4, §5, §6, §7, §8, §9, §10, §11

[11] = test system: wild-type HBV (ayw), cell line WT3/C1; assay: as above; format: cell-based, hepatitis B virus; details: WT (ayw); for EC50: cell line WT3/C1, mean ± SD of three to four experiments
Description: as §2, §3, §4, §5, §6, §7, §8, §9, §10, §11

hepatitis B virus = details: clinical studies; cited from earlier work
[12] = listed as 3′-valinyl ester hydrochloride of β-L-dC
[13] = Hepatitis B virus, HepG2, L515M/M552I, cell line MI4, mean ± SD of three to four experiments, read-out: EC50
[14] = Hepatitis B virus, HepG2, L515M/M552V, cell line MV5/B3, mean ± SD of three to four experiments, read-out: EC50
[15] = Hepatitis B virus, HepG2, M552I, cell line I2, mean ± SD of three to four experiments, read-out: EC50
[16] = Hepatitis B virus, HepG2, M552V

Chain of hepatitis B virus deoxyribonucleic acid (DNA) polymerase (P03156 whole entry): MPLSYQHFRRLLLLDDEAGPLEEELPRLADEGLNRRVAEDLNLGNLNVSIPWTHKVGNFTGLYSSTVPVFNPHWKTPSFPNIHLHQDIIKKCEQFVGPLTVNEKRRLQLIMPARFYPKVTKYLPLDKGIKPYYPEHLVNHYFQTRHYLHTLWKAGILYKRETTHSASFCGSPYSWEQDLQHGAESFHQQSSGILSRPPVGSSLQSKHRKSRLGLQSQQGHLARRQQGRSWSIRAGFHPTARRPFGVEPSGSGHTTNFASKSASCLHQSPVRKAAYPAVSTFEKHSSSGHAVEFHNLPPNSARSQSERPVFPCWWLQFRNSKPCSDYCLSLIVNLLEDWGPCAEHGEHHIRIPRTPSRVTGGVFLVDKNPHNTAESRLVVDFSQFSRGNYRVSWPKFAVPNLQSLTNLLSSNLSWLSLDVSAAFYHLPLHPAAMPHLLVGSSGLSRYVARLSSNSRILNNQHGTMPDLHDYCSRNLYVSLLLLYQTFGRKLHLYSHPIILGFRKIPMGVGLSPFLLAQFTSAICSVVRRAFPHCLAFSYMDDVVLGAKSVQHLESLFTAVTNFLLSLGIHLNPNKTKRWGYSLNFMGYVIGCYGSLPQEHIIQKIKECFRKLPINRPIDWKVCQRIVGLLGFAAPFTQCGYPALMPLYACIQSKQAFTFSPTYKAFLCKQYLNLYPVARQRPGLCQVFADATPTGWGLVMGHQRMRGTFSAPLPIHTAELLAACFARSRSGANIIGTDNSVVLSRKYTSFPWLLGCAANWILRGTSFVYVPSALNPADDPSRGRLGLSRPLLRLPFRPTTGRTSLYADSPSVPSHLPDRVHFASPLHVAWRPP

Compound: CC(=O)OC[C@@H]1O[C@H](n2ccc(N)nc2=O)C[C@H]1OC(C)=O [3′5′-diacetyl-L-dC, 3′,5′-Di-O-acetyl-2′-deoxy-β-L-cytidine]
- log P (octanol/water) [1]: −0.74

Compound: CC(C)[C@H](N)C(=O)O[C@@H]1C[C@@H](n2ccc(N)nc2=O)O[C@H]1CO.Cl [3′-val-L-dC, 3′-valinyl ester hydrochloride of β-L-dC]
- P (B/A) ([1]; listed as L-dC-3′-valine ester hydrochloride): 0.0296 and 0.0293
- log P (octanol/water) [1]: −1.53
- Solubility (g/L) [2]: >408 g/L
- Solubility (g/L) [2, 12]: > 408 g/L
- Solubility (mol/L) [2, 12]: greater than 1.023 mol/L

Compound: CC(C)[C@H](N)C(=O)OC[C@@H]1O[C@H](n2ccc(N)nc2=O)C[C@H]1O [5′-val-L-dC, 5′-L-valine ester of 2′-deoxy-β-L-cytidine hydrochloride]
- P′ (B/A′) [3]: 1.54 × 10^−3 and 2.04 × 10^−3
- stability in words [4]: fully stable

Compound: Nc1ccn([C@H]2C[C@H](O)[C@@H](CO)O2)c(=O)n1 [D-dC, D-Deoxycytidine]
- P (B/A) [1]: 0.039
- log P (octanol/water) [1]: −1.41
- maximum initial velocity (Vmax) of phosphorylation [5]: 2.15 nmol/min/mg protein
- Solubility (g/L) [2]: 272 g/L (≈ 1200 mM)
- Solubility (mol/L) [2]: 1.03 mol/L (≈ 234 mg/mL)
- Concentration (mol/L) of single samples ([2]; 1st-3rd HPLC sample of the saturated (D-dC) or most concentrated available solution): 1.07 mol/L and 1.08 mol/L and 0.96 mol/L

Compound: O=c1ccn([C@@H]2C[C@@H](O)[C@H](COP(=O)(O)OP(=O)(O)OP(=O)(O)O)O2)c(=O)[nH]1 [L-dU-TP, β-L-2′-deoxyuridine 5′-triphosphate]
- IC50 [6]: 5.26 µM

Compound: Nc1ccn([C@@H]2C[C@@H](O)[C@H](CO)O2)c(=O)n1 [LdC-HCl]
- EC50 ([7]; L515M/M552I, cell line MI4, mean ± SD of three to four experiments, read-out: EC50): ≥ 1000 µM
- EC50 ([8]; L515M/M552V, cell line MV5/B3, mean ± SD of three to four experiments, read-out: EC50): 777 ± 99 µM
- EC50 ([9]; M552I, cell line I2, mean ± SD of three to four experiments, read-out: EC50): ≥ 1000 µM
- EC50 ([10]; M552V): 0.36 ± 0.13 µM
- EC50 [11]: 0.18 ± 0.09 µM

Compound: Nc1ncnc2c1ncn2CCOCP(=O)(O)O [PMEA, 9-{2-(phosphonomethoxy)ethyl}adenine, reference compound]
- EC50 [7, 13]: 1.49 ± 0.3 µM
- activity against the mutant, in words ([7]; L515M/M552I double mutant): retained significant activity
- X Resist. (fold resistance) ([7]; L515M/M552I, EC50 mutant divided by EC50 wild-type): 3.6 ± 1.1
- EC50 [8, 14]: 0.62 ± 0.3 µM
- activity against the mutant, in words ([8]; L515M/M552V double mutant): retained significant activity
- X Resist. (fold resistance) ([8]; L515M/M552V, EC50 mutant divided by EC50 wild-type): 3.3 ± 2.9
- EC50 [9, 15]: 1.6 ± 1.12 µM
- activity against the mutant, in words ([9]; M552I single mutant): retained significant activity
- X Resist. (fold resistance) ([9]; M552I, EC50 mutant divided by EC50 wild-type): 4.6 ± 3.0
- EC50 [10, 16]: 1.02 ± 0.22 µM
- activity against the mutant, in words ([10]; M552V single mutant): retained significant activity
- X Resist. (fold resistance) ([10]; M552V, EC50 mutant divided by EC50 wild-type): 3.8 ± 2.3
- EC50 ([11]; Hepatitis B virus, HepG2): 0.33 ± 0.17 µM
- X Resist. (fold resistance) ([11]; EC50 mutant divided by EC50 wild-type): 1

Compound: Cc1cn([C@H]2C[C@H](O)[C@@H](CO)O2)c(=O)[nH]c1=O [Thd, D-thymidine]
- maximum initial velocity (Vmax) of phosphorylation [5]: 1.26 nmol/min/mg protein

Compound: Nc1ccn([C@@H]2CS[C@H](CO)O2)c(=O)n1 [lamivudine, (−)-enantiomer of BCH-189 (2′,3′-dideoxy-3′-thiacytidine), reference compound]
- EC50 ([7]; Hepatitis B virus, HepG2, L515M/M552I double mutant): > 1000 µM
- EC50 [7, 13]: ≥ 1000 µM
- EC50 ([8]; Hepatitis B virus, HepG2, L515M/M552V double mutant): > 1000 µM
- EC50 [8, 14]: ≥ 1000 µM
- EC50 ([9]; Hepatitis B virus, HepG2, M552I single mutant): > 1000 µM
- EC50 [9, 15]: ≥ 1000 µM
- EC50 [10, 16]: 0.96 ± 0.36 µM
- EC50 ([11]; Hepatitis B virus, HepG2): 0.05 ± 0.03 µM

Compound: Interferon alpha-2b
- patients with no evidence of the hepatitis B virus in their blood over time (hepatitis B virus): 45%
